According to PubChem BioAssay (NCI):
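1) Cells in 96-well plates. 2) Compound, 48 h, 5 concentrations. 3) Linear interpolation between surrounding doses. 4) Unreached endpoint = highest concentration. GI50: concentration for 50% inhibition of growth. TGI is the concentration that stops growth completely.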

Assays:
Test in all cases: DTP human tumour cell line panel, 48 h
[1] = system: 786-0 renal
[2] = system: A498 renal
[3] = system: A549 NSCLC
[4] = system: ACHN renal
[5] = system: BT-549 breast
[6] = system: CAKI-1 renal
[7] = system: CCRF-CEM leukemia
[8] = system: COLO 205 colon
[9] = system: DU-145 prostate
[10] = system: EKVX NSCLC
[11] = system: HCC-2998 colon
[12] = system: HCT-116 colon
[13] = system: HCT-15 colon
[14] = system: HL-60(TB) leukemia
[15] = system: HOP-62 NSCLC
[16] = system: HOP-92 NSCLC
[17] = system: HS 578T breast
[18] = system: HT29 colon
[19] = system: IGROV1 ovarian
[20] = system: K-562 leukemia
[21] = system: KM12 colon
[22] = system: LOX IMVI melanoma
[23] = system: M14 melanoma
[24] = system: MALME-3M melanoma
[25] = system: MCF7 breast
[26] = system: MDA-MB-231 breast
[27] = system: MDA-MB-435
[28] = system: MOLT-4 leukemia
[29] = system: NCI-H226 lung
[30] = system: NCI-H23 lung
[31] = system: NCI-H460 lung
[32] = system: NCI-H522 lung
[33] = system: NCI/ADR-RES ovarian
[34] = system: OVCAR-3 ovarian
[35] = system: OVCAR-4 ovarian
[36] = system: OVCAR-5 ovarian
[37] = system: OVCAR-8 ovarian
[38] = system: PC-3 prostate
[39] = system: RPMI-8226 leukemia
[40] = system: RXF 393 renal
[41] = system: SF-268 CNS
[42] = system: SF-295 CNS
[43] = system: SF-539 CNS
[44] = system: SK-MEL-2 melanoma
[45] = system: SK-MEL-28 melanoma
[46] = system: SK-MEL-5 melanoma
[47] = system: SK-OV-3 ovarian
[48] = system: SN12C renal
[49] = system: SNB-19 CNS
[50] = system: SNB-75 CNS
[51] = system: SR leukemia
[52] = system: SW-620 colon
[53] = system: T-47D breast
[54] = system: TK-10 renal
[55] = system: U251 CNS
[56] = system: UACC-257 melanoma
[57] = system: UACC-62 melanoma
[58] = system: UO-31 renal

`Cc1[nH]nc(C(=O)n2nc(N)c3ccccc32)c1[N+](=O)[O-]` was tested, and the GI50 [1] was > 100 µM, the TGI [1] was > 100 µM and the GI50 [2] was > 100 µM. For the same molecule, the TGI [2] was > 100 µM, the GI50 [3] was > 100 µM and the TGI [3] was > 100 µM. The GI50 [4] was > 100 µM, the TGI [4] was > 100 µM and the GI50 [5] was > 90.8 µM. For the same molecule, the TGI [5] was > 100 µM, the GI50 [6] was > 100 µM and the TGI [6] was > 100 µM. For the same molecule, the GI50 [7] was 32.2 µM, the TGI [7] was > 100 µM and the GI50 [8] was > 100 µM. For the same molecule, the TGI [8] was > 100 µM, the GI50 [9] was > 100 µM and the TGI [9] was > 100 µM. The GI50 [10] was > 100 µM, the TGI [10] was > 100 µM and the GI50 [11] was > 100 µM. The TGI [11] was > 100 µM, the GI50 [12] was > 100 µM and the TGI [12] was > 100 µM. The GI50 [13] was > 63.5 µM, the TGI [13] was > 100 µM and the TGI [14] was > 100 µM. The GI50 [15] was > 100 µM, the TGI [15] was > 100 µM and the GI50 [16] was 56.4 µM. For the same molecule, the TGI [16] was > 100 µM, the GI50 [17] was > 100 µM and the TGI [17] was > 100 µM. The GI50 [18] was > 100 µM, the TGI [18] was > 100 µM and the GI50 [19] was 37.5 µM. For the same molecule, the TGI [19] was > 100 µM, the GI50 [20] was > 100 µM and the TGI [20] was > 100 µM. The GI50 [21] was > 100 µM, the TGI [21] was > 100 µM and the GI50 [22] was > 39.5 µM. For the same molecule, the TGI [22] was > 100 µM, the GI50 [23] was > 100 µM and the TGI [23] was > 100 µM. For the same molecule, the GI50 [24] was > 100 µM, the TGI [24] was > 100 µM and the GI50 [25] was > 100 µM. The TGI [25] was > 100 µM, the GI50 [26] was > 100 µM and the TGI [26] was > 100 µM. For the same molecule, the GI50 [27] was > 100 µM, the TGI [27] was > 100 µM and the GI50 [28] was > 89.4 µM. The TGI [28] was > 100 µM, the GI50 [29] was > 100 µM and the TGI [29] was > 100 µM. For the same molecule, the GI50 [30] was > 100 µM, the TGI [30] was > 100 µM and the GI50 [31] was > 100 µM. For the same molecule, the TGI [31] was > 100 µM, the GI50 [32] was > 100 µM and the TGI [32] was > 100 µM. The GI50 [33] was > 100 µM, the TGI [33] was > 100 µM and the GI50 [34] was > 100 µM. The TGI [34] was > 100 µM, the GI50 [35] was > 100 µM and the TGI [35] was > 100 µM. The GI50 [36] was > 100 µM, the TGI [36] was > 100 µM and the GI50 [37] was > 100 µM. For the same molecule, the TGI [37] was > 100 µM, the GI50 [38] was > 100 µM and the TGI [38] was > 100 µM. For the same molecule, the GI50 [39] was > 100 µM, the TGI [39] was > 100 µM and the GI50 [40] was > 100 µM. The TGI [40] was > 100 µM, the GI50 [41] was > 100 µM and the TGI [41] was > 100 µM. For the same molecule, the GI50 [42] was > 100 µM, the TGI [42] was > 100 µM and the GI50 [43] was > 100 µM. For the same molecule, the TGI [43] was > 100 µM, the GI50 [44] was > 100 µM and the TGI [44] was > 100 µM. The GI50 [45] was > 100 µM, the TGI [45] was > 100 µM and the GI50 [46] was > 100 µM. The TGI [46] was > 100 µM, the GI50 [47] was > 100 µM and the TGI [47] was > 100 µM. For the same molecule, the GI50 [48] was > 100 µM, the TGI [48] was > 100 µM and the GI50 [49] was > 100 µM. For the same molecule, the TGI [49] was > 100 µM, the GI50 [50] was 26.9 µM and the TGI [50] was > 88.9 µM. For the same molecule, the GI50 [51] was 26.2 µM, the TGI [51] was > 100 µM and the GI50 [52] was > 100 µM. For the same molecule, the TGI [52] was > 100 µM, the GI50 [53] was > 100 µM and the TGI [53] was > 100 µM. For the same molecule, the GI50 [54] was > 100 µM, the TGI [54] was > 100 µM and the GI50 [55] was > 57.2 µM. The TGI [55] was > 100 µM, the GI50 [56] was > 100 µM and the TGI [56] was > 100 µM. For the same molecule, the GI50 [57] was > 100 µM, the TGI [57] was > 100 µM and the GI50 [58] was > 78.6 µM. For the same molecule, the TGI [58] was > 100 µM.
